According to the NIST ThermoML archive (doi:10.1016/j.fluid.2011.02.020):

Assay: mn = molality of the nth substance listed, in mol/kg
Details: 298.15 K, 101 kPa, Liquid, Vibrating tube method

CCCCCCCCC(F)(F)C(F)(F)C(F)(F)C(F)(F)F [1,1,1,2,2,3,3,4,4-nonafluorododecane] + CCCCCCCC
Details | molar volume [m3/mol]
m1 = 0.0685 | 0.0002816
m1 = 0.0996 | 0.0002815
m1 = 0.1061 | 0.0002817
m1 = 0.1259 | 0.0002815
m1 = 0.1271 | 0.0002817
m1 = 0.1522 | 0.0002818
m1 = 0.1885 | 0.0002815
m1 = 0.2032 | 0.0002815

CCCCCC(F)(F)C(F)(F)C(F)(F)C(F)(F)F [1,1,1,2,2,3,3,4,4-nonafluorononane] + CCCCCCCC
Details | molar volume [m3/mol]
m1 = 0.0527 | 0.0002338
m1 = 0.0601 | 0.0002337
m1 = 0.0947 | 0.0002337
m1 = 0.1337 | 0.0002337
m1 = 0.1437 | 0.0002336
m1 = 0.1755 | 0.0002334
m1 = 0.1914 | 0.0002334
m1 = 0.2141 | 0.0002334

CCCCCCC(F)(F)C(F)(F)C(F)(F)C(F)(F)F [1,1,1,2,2,3,3,4,4-nonafluorodecane] + CCCCCCCC
Details | molar volume [m3/mol]
m1 = 0.0465 | 0.0002496
m1 = 0.0608 | 0.0002501
m1 = 0.0703 | 0.0002498
m1 = 0.1003 | 0.0002498
m1 = 0.1403 | 0.0002498
m1 = 0.1663 | 0.0002493
m1 = 0.1689 | 0.0002492
m1 = 0.2127 | 0.0002497

FC(F)(F)C(F)(F)C(F)(F)C(F)(F)C(F)(F)C(F)(F)F [perfluorohexane] + CCCCCCCC
Details | molar volume [m3/mol]
m1 = 0.088 | 0.0002294
m1 = 0.1035 | 0.0002312
m1 = 0.131 | 0.0002293
m1 = 0.1624 | 0.0002278
m1 = 0.1833 | 0.0002292
m1 = 0.2156 | 0.0002299
m1 = 0.2594 | 0.0002276
m1 = 0.268 | 0.0002308
m1 = 0.304 | 0.0002288
m1 = 0.3424 | 0.0002285
m1 = 0.3621 | 0.00023
m1 = 0.4051 | 0.0002288

FC(F)(F)C(F)(F)C(F)(F)C(F)(F)C(F)(F)C(F)(F)C(F)(F)C(F)(F)C(F)(F)F [eicosafluorononane] + CCCCCCCC
Details | molar volume [m3/mol]
m1 = 0.0532 | 0.0003069
m1 = 0.0565 | 0.000307
m1 = 0.0714 | 0.0003073
m1 = 0.0832 | 0.0003067
m1 = 0.1105 | 0.000307
m1 = 0.1219 | 0.0003062
m1 = 0.1488 | 0.0003058
m1 = 0.1513 | 0.0003065

FC(F)(F)C(F)(F)C(F)(F)C(F)(F)C(F)(F)C(F)(F)C(F)(F)C(F)(F)F [octadecafluorooctane] + CCCCCCCC
Details | molar volume [m3/mol]
m1 = 0.0362 | 0.0002822
m1 = 0.0617 | 0.0002816
m1 = 0.0923 | 0.0002798
m1 = 0.1157 | 0.0002803
m1 = 0.1445 | 0.0002792
m1 = 0.1585 | 0.0002786
m1 = 0.1808 | 0.0002784
m1 = 0.2115 | 0.0002788
